Laboratory results taken from ChEMBL document CHEMBL1127248, “Novel water-solutle (7-(acylhydrazono)-formyl camptothecins as potent inhibitors of DNA topoisomerase I” (Bioorg Med Chem Lett, 1994).
In brackets after ≈: the same amount, converted by molar mass.

Assays:
HepG2 = test: Cytotoxicity in HepG2-T14 cancer cell line; type: functional, cell-based; conditions: Homo sapiens
KB VCR R = test: Cytotoxicity in KB VCR R cancer cell line; type: functional, cell-based; conditions: Homo sapiens
KB [1] = test: Cytotoxicity in KB cancer cell line; type: functional, cell-based; conditions: Homo sapiens
MCF7 = test: Cytotoxicity in MCF-7 cancer cell line; type: functional, cell-based; conditions: Homo sapiens
SW480 = test: Cytotoxicity in SW480 cancer cell line; type: functional, cell-based; conditions: Homo sapiens
[2] = Compound was tested for the production of cellular protein-linked DNA breaks when administered at a dose of 25 ug/mL; type: functional
KB [3] = test: Cytotoxicity in KB VP-16 R cancer cell line; type: functional, cell-based; conditions: Homo sapiens
[4] = biological target: T1, DNA topoisomerase 1 (Homo sapiens) (UniProt P11387); test: Compound was tested for the inhibition of Topoisomerase I when administered at a dose of 25 ug/mL
T1 sequence (whole entry): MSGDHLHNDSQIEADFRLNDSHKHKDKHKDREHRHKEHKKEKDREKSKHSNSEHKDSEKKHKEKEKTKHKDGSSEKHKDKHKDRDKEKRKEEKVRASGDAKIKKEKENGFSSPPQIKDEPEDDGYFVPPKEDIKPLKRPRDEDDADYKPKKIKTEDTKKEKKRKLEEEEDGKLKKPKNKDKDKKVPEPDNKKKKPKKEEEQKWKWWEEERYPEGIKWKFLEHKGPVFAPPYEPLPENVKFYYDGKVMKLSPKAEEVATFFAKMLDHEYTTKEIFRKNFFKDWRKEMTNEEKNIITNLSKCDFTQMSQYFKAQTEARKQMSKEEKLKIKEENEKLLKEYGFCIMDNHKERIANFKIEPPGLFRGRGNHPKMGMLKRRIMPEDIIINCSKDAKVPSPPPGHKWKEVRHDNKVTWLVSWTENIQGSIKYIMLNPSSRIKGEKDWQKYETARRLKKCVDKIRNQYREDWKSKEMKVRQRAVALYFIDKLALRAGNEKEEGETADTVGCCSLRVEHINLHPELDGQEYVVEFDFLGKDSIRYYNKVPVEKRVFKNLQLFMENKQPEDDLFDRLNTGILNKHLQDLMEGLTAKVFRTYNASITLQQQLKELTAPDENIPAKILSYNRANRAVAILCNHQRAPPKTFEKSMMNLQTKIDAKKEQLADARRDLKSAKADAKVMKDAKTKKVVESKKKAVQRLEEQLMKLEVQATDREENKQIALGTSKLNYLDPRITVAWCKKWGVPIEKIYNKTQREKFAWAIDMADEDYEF

SMILES | IC50 (HepG2) [µg/mL] | IC50 (KB VCR R) [µg/mL] | IC50 (KB [1]) [µg/mL] | IC50 (MCF7) [µg/mL] | IC50 (SW480) [µg/mL] | Activity [2] [%] | IC50 (KB [3]) [µg/mL] | Topoisomerase I inhibition relative to reference (%) [4] [%]
CC[C@@]1(O)C(=O)OCc2c1cc1n(c2=O)Cc2c-1nc1ccccc1c2/C=N/NC(=O)C(N)Cc1ccc(O)cc1.Cl (stereo partly specified) | 1 | 1 | 0.1 | 5 | 0.4 | 181 | 5 | –
CC[C@@]1(O)C(=O)OCc2c1cc1n(c2=O)Cc2c-1nc1ccccc1c2/C=N/NC(=O)C(C)N.Cl (stereo partly specified) | 2.5 | 3 | 0.1 | 1 | 0.6 | 93.7 | 5 | 98
CC[C@@]1(O)C(=O)OCc2c1cc1n(c2=O)Cc2cc3ccccc3nc2-1 [CAMPTOTHECIN] | 0.09 (≈ 0.258 µM) | 0.03 (≈ 0.0861 µM) | 0.01 (≈ 0.0287 µM) | 0.02 (≈ 0.0574 µM) | 0.01 (≈ 0.0287 µM) | 100 | 0.04 (≈ 0.115 µM) | –
CC[C@@]1(O)C(=O)OCc2c1cc1n(c2=O)Cc2c-1nc1ccccc1c2/C=N/NC(=O)C(N)CCSC.Cl (stereo partly specified) | 2 | 0.2 | 0.1 | 1 | 0.8 | 111 | 0.5 | –
CC[C@@]1(O)C(=O)OCc2c1cc1n(c2=O)Cc2c-1nc1ccccc1c2/C=N/NC(=O)C(N)CO.Cl (stereo partly specified) | 3.5 | 3 | 0.12 | 1 | 1 | 79.8 | 5 | 145
CC[C@@]1(O)C(=O)OCc2c1cc1n(c2=O)Cc2c-1nc1ccccc1c2/C=N/NC(=O)C(N)CC(C)C.Cl (stereo partly specified) | 0.4 | 0.4 | 0.1 | 0.15 | 0.04 | 111.7 | 1 | 136
CC[C@@]1(O)C(=O)OCc2c1cc1n(c2=O)Cc2c-1nc1ccccc1c2/C=N/NC(=O)CN.Cl | 0.6 | 1 | 0.1 | 0.4 | 0.1 | 110.3 | 3 | 116
CC[C@@]1(O)C(=O)OCc2c1cc1n(c2=O)Cc2c-1nc1ccccc1c2/C=N/NC(=O)C1CCCN1.Cl (stereo partly specified) | 1.25 | 5 | 0.04 | 0.8 | 0.7 | 154.6 | 0.6 | 100
